Laboratory results reported in patent US20160332972A1, “UREA HYDANTOIN DERIVATIVES AS FORMYL PEPTIDE MODULATORS” (ALLERGAN, INC., priority 2014, published 2016).
pEC50: −log10 of the molar value.

Molecular target: T1, FPR2 (Homo sapiens, UniProt P25090)
T1 construct: expressed in transfected cells
T1 sequence (P25090 1-351): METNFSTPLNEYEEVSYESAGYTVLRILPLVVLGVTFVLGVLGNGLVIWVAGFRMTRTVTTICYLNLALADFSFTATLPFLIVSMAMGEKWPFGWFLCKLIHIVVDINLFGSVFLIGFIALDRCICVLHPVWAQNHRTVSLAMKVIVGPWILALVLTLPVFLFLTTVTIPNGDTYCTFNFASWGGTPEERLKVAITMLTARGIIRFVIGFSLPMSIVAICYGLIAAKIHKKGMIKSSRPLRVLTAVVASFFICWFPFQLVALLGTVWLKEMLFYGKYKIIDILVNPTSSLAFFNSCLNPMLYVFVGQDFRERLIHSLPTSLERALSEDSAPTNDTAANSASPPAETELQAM
Experiment: FLIPR Tetra calcium activity assay in CHO-Gα16 cells stably expressing FPR2
Type: cell-based
Description: CHO-Gα16 cells stably expressing FPR2 were cultured in F12 media (10% FBS, 1% PSA, 400 μg/ml geneticin and 50 μg/ml hygromycin). In general, the day before the experiment, 18,000 cells/well were plated in a 384-well clear bottom poly-D-lysine coated plate. The following day the screening compound-induced calcium activity was assayed on a FLIPR^Tetra. The drug plates were prepared in 384-well microplates using EP3 and MultiPROBE robotic liquid handling systems. Compounds were tested at concentrations ranging from 0.61 to 10,000 nM. Results are expressed as EC50 (nM) and % efficacy values.

FPR2 Gα16-CHO (% eff) (% efficacy, calcium activity): (0.97) % | pEC50 (compound-induced calcium activity, tested at 0.61 to 10,000 nM): 7.31
SMILES: CCOC(=O)CCNCCC1(CC)NC(=O)N(NC(=O)Nc2ccc(Br)cc2)C1=O (centres unmarked) [Compound 1, Ethyl 3-{[2-(1-{[(4-Bromophenyl)carbamoyl]amino}-4-ethyl-2,5-dioxoimidazolidin-4-yl)ethyl]amino}propanoate]
